{
  "source": "patent US20230201209A1",
  "about": "“PHARMACEUTICAL COMPOSITION FOR PREVENTING OR TREATING CANCER CONTAINING ANTIVIRAL AGENT AND ANTIDEPRESSANT AS ACTIVE INGREDIENTS” (FRONTBIO INC., priority 2020, published 2023)",
  "data": [
    {"system": "various cancer cells", "test": "MTT analysis, summary statements on various cancer cells", "format": "cell-based", "details": "not given", "protocol": "(§1) Specifically, ASPC-1 cell line, which is a pancreatic cancer cell line, and HCT116 cell line, which is a colon cancer cell line, was incubated in a 100 mm culture dish using DMEM-10% FBS under 5% CO2 at 37° C., inoculated into each well of a 96-well plate at 20% confluence, and incubated for 24 hours. The incubated cell lines were treated with efavirenz at a concentration of 2 μM and fluoxetine at a concentration of 2 μM alone or in combination and cultured in a CO2 incubator for 24 hours. The culture medium was removed from each well, 100 pl of a fresh culture medium was added, and 10 μl of a 12 mM MTT stock solution (5 mg MTT/PBS) was added, and incubation was performed at 37° C. for 2 hours. Thereafter, 100 pl of SDS-HCl solution (1 g SDS/10 ml 0.01 M HCl), which was a reaction terminating solution, was added, incubation was performed at 37° C. for 4 hours, and OD was measured at 570 nm using a microplate leader. Percentage (%) growth inhibition was calculated by comparing the OD thus measured to the OD of the cells not treated with drugs.", "values": [
      {"smiles": "CC(C)CN(C[C@@H](O)[C@H](Cc1ccccc1)NC(=O)O[C@H]1CO[C@H]2OCC[C@H]21)S(=O)(=O)c1ccc(N)cc1", "note": "[darunavir]", "growth inhibitory effect in cancer cells": "a growth inhibitory effect is exerted"},
      {"smiles": "CNCC[C@H](Oc1cccc2ccccc12)c1cccs1", "note": "[duloxetine]", "growth inhibitory effect in cancer cells": "a growth inhibitory effect is exerted"}
    ]},
    {"system": "various cancer cells", "test": "MTT analysis, summary statements on various cancer cells", "format": "cell-based", "details": "treated singly or in a complex, mixed or combined manner; MTT analysis", "protocol": "as §1", "values": [
      {"smiles": "CNCCC=C1c2ccccc2CCc2ccccc21", "note": "[nortriptyline]", "growth inhibitory effect in cancer cells": "a growth inhibitory effect is exerted"},
      {"smiles": "CC(CN(C)C)CN1c2ccccc2CCc2ccccc21", "note": "(centres unmarked) [trimipramine]", "growth inhibitory effect in cancer cells": "a growth inhibitory effect is exerted"},
      {"smiles": "CNCCC(Oc1ccc(C(F)(F)F)cc1)c1ccccc1", "note": "(centres unmarked) [fluoxetine]", "growth inhibitory effect in cancer cells": "a growth inhibitory effect is exerted"},
      {"smiles": "O=C1Nc2ccc(Cl)cc2[C@@](C#CC2CC2)(C(F)(F)F)O1", "note": "[efavirenz]", "growth inhibitory effect in cancer cells": "a growth inhibitory effect is exerted"},
      {"smiles": "CN(C)CCC=C1c2ccccc2CCc2ccccc21", "note": "[amitriptyline]", "growth inhibitory effect in cancer cells": "a growth inhibitory effect is exerted"},
      {"smiles": "Cc1cc(C#N)cc(C)c1Oc1nc(Nc2ccc(C#N)cc2)nc(N)c1Br", "note": "[etravirine]", "growth inhibitory effect in cancer cells": "a growth inhibitory effect is exerted"},
      {"smiles": "CNCCCC1c2ccccc2C=Cc2ccccc21", "note": "[protriptyline]", "growth inhibitory effect in cancer cells": "a growth inhibitory effect is exerted"},
      {"smiles": "Cc1cccc(C)c1OCC(=O)N[C@@H](Cc1ccccc1)[C@@H](O)C[C@H](Cc1ccccc1)NC(=O)[C@H](C(C)C)N1CCCNC1=O", "note": "[lopinavir]", "growth inhibitory effect in cancer cells": "a growth inhibitory effect is exerted"},
      {"smiles": "CN(C)CCC=C1c2ccccc2C(C)(C)c2ccccc21", "note": "[melitracene, melitracen]", "growth inhibitory effect in cancer cells": "a growth inhibitory effect is exerted"},
      {"smiles": "COC(=O)N[C@H](C(=O)N[C@@H](Cc1ccccc1)[C@@H](O)CN(Cc1ccc(-c2ccccn2)cc1)NC(=O)[C@@H](NC(=O)OC)C(C)(C)C)C(C)(C)C", "note": "[atazanavir]", "growth inhibitory effect in cancer cells": "a growth inhibitory effect is exerted"},
      {"smiles": "CC(C)c1nc(CN(C)C(=O)N[C@H](C(=O)N[C@@H](Cc2ccccc2)C[C@H](O)[C@H](Cc2ccccc2)NC(=O)OCc2cncs2)C(C)C)cs1", "note": "[ritonavir]", "growth inhibitory effect in cancer cells": "a growth inhibitory effect is exerted"},
      {"smiles": "CN(C)C(=N)NC(=N)N", "note": "[metformin]", "growth inhibitory effect in cancer cells": "a growth inhibitory effect is exerted"},
      {"smiles": "Clc1ccc2c(c1)C(N1CCNCC1)=Nc1ccccc1O2", "note": "[amoxapine]", "growth inhibitory effect in cancer cells": "a growth inhibitory effect is exerted"},
      {"smiles": "CNCCCN1c2ccccc2CCc2ccccc21", "note": "[desipramine]", "growth inhibitory effect in cancer cells": "a growth inhibitory effect is exerted"},
      {"smiles": "CNCCCC12CCC(c3ccccc31)c1ccccc12", "note": "[maprotyline, maprotiline]", "growth inhibitory effect in cancer cells": "a growth inhibitory effect is exerted"},
      {"smiles": "COCCCC/C(=N\\OCCN)c1ccc(C(F)(F)F)cc1", "note": "[fluvoxamine]", "growth inhibitory effect in cancer cells": "a growth inhibitory effect is exerted"},
      {"smiles": "Fc1ccc([C@@H]2CCNC[C@H]2COc2ccc3c(c2)OCO3)cc1", "note": "[paroxetine]", "growth inhibitory effect in cancer cells": "a growth inhibitory effect is exerted"},
      {"smiles": "CN(C)CCCN1c2ccccc2CCc2ccc(Cl)cc21", "note": "[clomipramine]", "growth inhibitory effect in cancer cells": "a growth inhibitory effect is exerted"}
    ]}
  ]
}
